From patent US20080293795A1, “COMBINATION THERAPY WITH PARP INHIBITORS” (ABBOTT LABORATORIES, priority 2006, published 2008) come the findings set out here.

Read-outs that look alike come from different tables or passages of the source.

Data set [1] has as its system MX-1 breast carcinoma xenograft. The experiment in a line: MX-1 breast carcinoma xenograft, combination with carboplatin. Format: in vivo, scid mice.
Source text: This cell line was derived from a person with a poorly differentiated mammary carcinoma.
Data presented in FIG. 4 are mean ±S.E.M. of 8-10 mice per treatment group.
Data set [2] can be described thus: Valproic acid and radiotherapy (FIG. 6).
Data set [3] has as its target T1, Recombinant Human Poly(ADP-Ribose) Polymerase (PARP) (Homo sapiens, UniProt P09874).
T1 construct: purchased Trevigen, Gaithersburg, Md; host or cells: E. coli
The experiment in a line: PARP1 inhibition assay ([3H]-NAD+, biotinylated histone H1, FlashPlate/SPA). The format is biochemical. The note with it: from inhibition curves at various substrate concentrations.
Procedure: Nicotinamide[2,5′,8-3H]adenine dinucleotide and strepavidin SPA beads were purchased from Amersham Biosiences (UK) Recombinant Human Poly(ADP-Ribose) Polymerase (PARP) purified from E. coli and 6-Biotin-17-NAD^+, were purchase from Trevigen, Gaithersburg, Md. NAD^+, Histone, aminobenzamide, 3-amino benzamide and Calf Thymus DNA (dcDNA) were purchased from Sigma, St. Louis, Mo. […] Biotinylated histone H1 was prepared by treating the protein with Sulfo-NHS-LC-Biotin from Pierce Rockford, Ill. […] Streptavidin coated (FlashPlate Plus) microplates were purchased from Perkin Elmer, Boston, Mass.
PARP1 assay was conducted in PARP assay buffer containing 50 mM Tris pH 8.0, 1 mM DTT, 4 mM MgCl2. […] 170 μl of the stopped reaction mixtures were transferred to streptavidin Flash Plates, incubated for 1 hr, and counted using a TopCount microplate scintillation counter.

The next data set deals with HCT-116 tumors. The experiment in a line: HCT-116 tumors in nude mice, combination with radiotherapy. The format is in vivo. The note with it: combination with radiotherapy (2 Gy/day, 10 doses) vs radiotherapy or compound alone; 6.25, 12.5 or 25 mg/kg/day i.p. OMPs 14 days; FIG. 1. Here is the method: This study was done in nude mice bearing HCT-116 tumors in the leg. Three days (−3) prior to the beginning of radiotherapy, mice were implanted i.p with OMPs delivering A-620223 at 0, 6.25, 12.5, or 25 mg/kg/day for 14 days. Starting day 0 mice received radiation treatment (2 Gy/day) for 10 doses alone or in combination with the 3 different doses of 2-(N-propylpiperidin-4-yl)benzimidazole-4-carboxamide.

Data set [4] deals with DoHH-2 flank tumor xenograft. The note with it: for efficacy at reducing the Mean Tumor Volume, alone: single agent.
Procedure: Animals were size matched on day 15 to an approximate tumor volume of 503 mm^3.
Group mouse weights were recorded three times a week to monitor for weight loss due to toxicity or excessive tumor burden.
The subject of data set [5] is MDA-231-LN-luc cells in the brain striatum. The note with it: for survival to 300% tumor change endpoint: Kaplan-Meier, Logrank, FIG. 23.
Data set [6] deals with PC3M-Luc human prostate carcinoma. As to the kind of experiment: Orthotopic PC3M-Luc human prostate carcinoma model (BLI). Format: in vivo, male SCID-C.B17 mice. The note with it: vs vehicles, p<0.01. Here is the method:
Bioluminescent PC-3M-luciferase-C6 osteolytic human prostate cancer cells, constitutively expressing luciferase (Caliper Life Sciences, Hopkinton, Mass.) were orthotopically injected into the prostates of 10-week-old male SCID-C.B17 mice (C.B-17/IcrCrl-scid-BR, Charles River Labs). Mice were housed in a facility with constant humidity, temperature and a 12-h light-dark cycle. Mice were anesthetized with intramuscular injections of ketamine (40 mg/kg) and rompum (5 mg/kg) before surgery. The surgical region was shaved and sterilized with iodine and alcohol swabs. A lower midline incision was made to access the prostate. The left lobe of the dorsal prostate was injected with 1×10^6 PC3M-Luc cells (975 photon/second/cell) in 30 μl (1:1 matrigel, Collaborative Biomedical Products, Bedford, Mass.). The peritoneal cavity was closed with 4-0 suture and skin incision was closed with clip.
In vivo bioluminescent image (BLI) was performed with an IVIS® Imaging System (Caliper Life Sciences, Hopkinton, Mass.). […] Images and measurements of bioluminescent signals were acquired and analyzed using Living Image® software (Caliper Life Sciences, Hopkinton, Mass.). Uniform region of interests (ROIs) were used across all groups and time points to achieve quantification of bioluminescent signal. […] The mice were then monitored with this system at weekly intervals. […]

The subject of data set [7] is MX-1 breast carcinoma xenograft. As to the kind of experiment: MX-1 breast carcinoma xenograft, combination with cisplatin. The format is in vivo, nude mice. The note with it: FIG. 5. Here is the method: In this study the efficacy of A-861695 in combination with cisplatin was evaluated in the MX-1 breast carcinoma xenograft model in nude mice. Tumors were size-matched to 100 mm^3 on day 16 and PARP inhibitor therapy (p.o., b.i.d. x8) was initiated the same day. A single dose of cisplatin at 6.0 mg/kg/day was administered i.p. day 18. Data, shown in FIG. 5, are mean ±S.E.M. of 9 mice per treatment group.

The next data set deals with B16F10 murine melanoma. The experiment in a line: B16F10 murine melanoma, combination with TMZ. The format is in vivo, C57BL/6 mice. The note with it: A-861695 25, 12.5 or 3.1 mg/kg/day p.o. b.i.d. + TMZ 62.5 mg/kg/day p.o. q.d. X5; FIG. 2. The method, then:
This study was done on mice with B 16F10 murine melanoma. Mice were divided into six treatment groups with 8-10 mice per group. See figure two for treatment groups. B16F10 cells were injected s.c. into C57BL/6 mice on day 0. Dosing was initiated on day one. A-861695 was administered p.o., b.i.d. on days 1-14. On days 3-7 temozolomide (TMZ) was administered p.o., q.d. (for the groups receiving both TMZ and A-861695, TMZ was given two hours after the A-861695 was administered).

Data set [8] concerns HSB T-cell ALL; JM1 pre-B ALL; P115 primary AML cells. As to the kind of experiment: TMZ and ABT-888 combinations in leukemia cells (FIGS. 9-11). The note with it: differing amounts of TMZ and ABT-888.
In a further data set the test system is MX-1 flank xenograft. The note with it: TMZ at 50 and 12.5 mg/kg/day.

T1 sequence (P09874 whole entry): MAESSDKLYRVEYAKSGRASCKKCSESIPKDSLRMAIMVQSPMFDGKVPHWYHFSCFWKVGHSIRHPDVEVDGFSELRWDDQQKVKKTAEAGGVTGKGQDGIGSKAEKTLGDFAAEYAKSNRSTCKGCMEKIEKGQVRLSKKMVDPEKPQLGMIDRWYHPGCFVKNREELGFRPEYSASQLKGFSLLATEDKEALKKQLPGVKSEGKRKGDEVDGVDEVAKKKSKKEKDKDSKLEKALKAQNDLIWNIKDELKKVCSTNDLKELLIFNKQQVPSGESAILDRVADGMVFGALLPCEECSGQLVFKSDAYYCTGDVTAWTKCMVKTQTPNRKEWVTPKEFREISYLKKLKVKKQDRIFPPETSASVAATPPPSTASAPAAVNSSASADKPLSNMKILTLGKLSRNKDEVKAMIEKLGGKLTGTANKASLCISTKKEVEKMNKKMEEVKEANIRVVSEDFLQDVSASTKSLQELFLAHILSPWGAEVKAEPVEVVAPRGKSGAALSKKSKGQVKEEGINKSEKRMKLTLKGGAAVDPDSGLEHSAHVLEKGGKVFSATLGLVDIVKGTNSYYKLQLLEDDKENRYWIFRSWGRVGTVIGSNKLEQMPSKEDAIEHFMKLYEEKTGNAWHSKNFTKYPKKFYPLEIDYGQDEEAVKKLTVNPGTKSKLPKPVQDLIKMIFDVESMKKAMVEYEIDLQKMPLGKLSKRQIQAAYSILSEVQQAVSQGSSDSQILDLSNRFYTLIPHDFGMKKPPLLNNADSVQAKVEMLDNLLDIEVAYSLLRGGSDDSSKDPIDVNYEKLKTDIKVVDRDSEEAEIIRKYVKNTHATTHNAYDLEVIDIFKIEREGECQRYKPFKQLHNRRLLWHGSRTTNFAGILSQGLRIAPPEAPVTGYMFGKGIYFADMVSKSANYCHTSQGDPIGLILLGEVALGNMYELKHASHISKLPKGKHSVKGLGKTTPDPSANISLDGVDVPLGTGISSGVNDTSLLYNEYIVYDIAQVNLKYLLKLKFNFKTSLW
Source text for MX-1 flank xenograft: All mice were ear tagged. […] At various intervals following tumor cell inoculation, the individual tumor dimensions were serially measured using calibrated microcalipers and the tumor volumes calculated according to the formula V=L×W^2/2 (V:volume, L:length, W:width). Mice were humanely euthanized when the tumor volumes reached a predetermined size.

For the molecule `N.N.O=C([O-])C1(C(=O)[O-])CCC1.[Pt+2]` [carboplatin], the “tumor inhibition as a single agent” value in [1] (carboplatin 5, 10, 15 mg/kg/day i.p. day 20, 24, 27, FIG. 4) is listed as “dose-dependent tumor inhibition”. Further, in [1] (carboplatin monotherapy 10 mg/kg/day), the “tumor volume course, monotherapy” value is on record as “only delayed tumor growth”.
`CCCC(CCC)C(=O)O` [valproic acid]: in [2], the effect on radiotherapy result is reported as “can enhance the effects of radiotherapy”.
A word on the Ki: it is a dissociation constant, usually derived from enzyme kinetics or from competition with a known ligand. As for `CCCN1CCC(c2nc3cccc(C(N)=O)c3[nH]2)CC1` [2-(N-propylpiperidin-4-yl)benzimidazole-4-carboxamide], the Ki in data set [3] came to 8.6 nM. In addition, in the data set on HCT-116 tumors, the “reduction of tumor size” value was “significant improvement in the reduction of tumor size”.
Take `Cn1nnc2c(C(N)=O)ncn2c1=O` [TMZ, temozolomide]: the “Observations (toxicity assessment)” value in data set [4] (female, Scid, mouse, in vivo) is reported as “Slight”. Further, the “efficacy at reducing the Mean Tumor Volume, alone” value in data set [4] is on record as “no efficacy”. Further, the “survival to 300% tumor change endpoint” value in data set [5] is reported as “significantly increased survival”. For the same molecule, in data set [5] (after last dose of 2nd cycle), the “Weight loss (Observations)” value is on record as more than 10% after last. Also, the Mortality in data set [5] (dead/total mice) is 0/11. In addition, the “efficacy after first treatment schedule (day 30)” value in data set [6] is reported as “significantly better than their vehicles”.
Regarding `C[C@]1(c2nc3c(C(N)=O)cccc3[nH]2)CCCN1` [ABT-888, 2-[(2R)-2-methylpyrrolidin-2-yl]-1H-benzimidazole-4-carboxamide], the “Observations (toxicity assessment)” value in data set [4] (Scid female mice, same dosing) was “None”. For the same molecule, the “efficacy at reducing the Mean Tumor Volume, alone” value in data set [4] is listed as “no efficacy”. In addition, in data set [1] (A-861695 25 mg/kg/day s.c. OMPs 14 days + carboplatin 10 and 15 mg/kg/day), the “potentiation of carboplatin (tumor volumes)” value is listed as “pronounced potentiation of carboplatin”. Further, in [7], the “potentiation of cisplatin activity” value is listed as “pronounced potentiation of cisplatin activity”. The “survival to 300% tumor change endpoint” value in data set [5] is on record as “profoundly improved survival compared to TMZ treatment alone”. Moreover, the “potentiation of TMZ efficacy” value in the data set on B16F10 murine melanoma is given as “significantly potentates the TMZ efficacy in a dose dependent manner”. For the same molecule, the “blood brain barrier crossing” value (rat, in vivo) is reported as “crosses the blood brain barrier”. Moreover, where the note is “tumor-bearing rats”, the “effect of co-administration of TMZ on plasma PK profile” value is “did not alter the plasma PK profile”. Besides, the “effect on toxicity of TMZ” value in [8] is on record as “enhancement of toxicity of TMZ”. Moreover, the “effect on toxicity of TMZ (% mean body weight loss)” value in the data set with MX-1 flank xenograft is listed as “did not exacerbate the toxicity of TMZ”.
`NC(=O)c1cccc2[nH]c(C3CN(C4CCOCC4)C3)nc12` [2-(1-tetrahydro-2H-pyran-4-ylazetidin-3-yl)-1H-benzimidazole-4-carboxamide]: in data set [3], the inhibition constant (Ki) was 45.6 nM.
Take `CCCN1CCCC1(C)c1nc2c(C(N)=O)cccc2[nH]1` (stereo not drawn) [2-(2-methyl-1-propylpyrrolidin-2-yl)-1H-benzimidazole-4-carboxamide]: in data set [3], the Ki is 18.7 nM.
The same measure, in the same setting: the same measure for `CC1(c2nc3c(C(N)=O)cccc3[nH]2)CCN(C2CCOCC2)C1` (stereo not drawn) [2-(3-methyl-1-tetrahydro-2H-pyran-4-ylpyrrolidin-3-yl)-1H-benzimidazole-4-carboxamide]: 7.2 nM; for `CC1(c2nc3c(C(N)=O)cccc3[nH]2)CN(C2CCC2)C1` [2-(1-cyclobutyl-3-methylazetidin-3-yl)-1H-benzimidazole-4-carboxamide]: 6.1 nM; for `CC1(c2nc3c(C(N)=O)cccc3[nH]2)CN(CC2CC2)C1` [2-[1-(cyclopropylmethyl)-3-methylazetidin-3-yl]-1H-benzimidazole-4-carboxamide]: 8 nM.
Take `CCCN1CCC(C)(c2nc3c(C(N)=O)cccc3[nH]2)CC1` [2-(4-methyl-1-propylpiperidin-4-yl)-1H-benzimidazole-4-carboxamide]: the Ki in [3] was 13.5 nM.
